Measured values reported in patent US8691800B2, “Quinoline derivatives as antibacterial agents” (Janssen Pharmaceutica N.V., priority 2005, dated 2014).
Converted amounts (≈) assume the structure as drawn.

Columns and labels:
[1] = test system: Bacillus subtilis (ATCC43639); assay: Microtitre plate assay, IC90 for bacterial growth; format: cell-based; conditions: for IC90: Bacillus subtilis, ATCC43639, 90% inhibitory concentration for bacterial growth, read-out: IC90 BSU 43639; for IC90 BSU 43639: 90% inhibitory concentration for bacterial growth
Protocol: (§1) The bacteria used in this study were grown overnight in flasks containing 100 ml Mueller-Hinton Broth (Becton Dickinson—cat. no. 275730) in sterile de-ionized water, with shaking, at 37° C. Stocks (0.5 ml/tube) were stored at 70° C. until use. Bacteria titrations were performed in microtiter plates and colony forming units (CFUs) were determined. In general, an inoculum level of approximately 100 CFUs was used for susceptibility testing.
(§2) Anti bacterial Susceptibility Testing: IC90 Determination
(§3) Flat-bottom, sterile 96-well plastic microtiter plates were filled with 180 μl of sterile deionized water, supplemented with 0.25% BSA. Subsequently, stock solutions (7.8× final test concentration) of compounds were added in 45 μl volumes in column 2. Serial five-fold dilutions (45 μl in 180 μl) were made directly in the microtiter plates from column 2 to reach column 11. Untreated control samples with (column 1) and without (column 12) inoculum were included in each microtiter plate. Depending on the bacteria type, approximately 10 to 60 CFU per well of bacteria inoculum (100 TCID50), in a volume of 100 μl in 2.8× Mueller-Hinton broth medium, was added to the rows A to H, except column 12. The same volume of broth medium without inoculum was added to column 12 in row A to H. The cultures were incubated at 37° C. for 24 hours under a normal atmosphere (incubator with open air valve and continuous ventilation). At the end of incubation, one day after inoculation, the bacterial growth was quantitated fluorometrically. Therefore resazurin (0.6 mg/ml) was added in a volume of 20 μl to all wells 3 hours after inoculation, and the plates were re-incubated overnight. A change in colour from blue to pink indicated the growth of bacteria. The fluorescence was read in a computer-controlled fluorometer (Cytofluor Biosearch) at an excitation wavelength of 530 nm and an emission wavelength of 590 nm. The % growth inhibition achieved by the compounds was calculated according to standard methods. The IC90 (expressed in μg/ml) was defined as the 90% inhibitory concentration for bacterial growth.

[2] = test system: Enterococcus faecalis (ATCC29212); assay: Microtitre plate assay, IC90 for bacterial growth; format: cell-based; conditions: for IC90: Enterococcus faecalis, ATCC29212, 90% inhibitory concentration for bacterial growth, read-out: IC90 EFA 29212
Protocol: as §1, §2, §3

[3] = test system: Streptococcus pyogens (ATCC8668); assay: Microtitre plate assay, IC90 for bacterial growth; format: cell-based; conditions: for IC90: Streptococcus, ATCC8668, 90% inhibitory concentration for bacterial growth, read-out: IC90 SPY 8668
Protocol: as §1, §2, §3

[4] = test system: methicilline resistant Staphylococcus aureus (MRSA) (a clinical isolate from the University of Antwerp); assay: Microtitre plate assay, IC90 for bacterial growth; format: cell-based; conditions: 90% inhibitory concentration for bacterial growth; for IC90: Staphylococcus aureus, MRSA, read-out: IC90 STA RMETHIC
Protocol: as §1, §2, §3

[5] = test system: Listeria monocytogenes (ATCC49594); assay: Microtitre plate assay, IC90 for bacterial growth; format: cell-based; conditions: for IC90: Listeria monocytogenes, ATCC49594, 90% inhibitory concentration for bacterial growth, read-out: IC90 LMO 49594
Protocol: as §1, §2, §3

[6] = test system: Enterococcus faecalis (ATCC14506); assay: Microtitre plate assay, IC90 for bacterial growth; format: cell-based; conditions: 90% inhibitory concentration for bacterial growth; for IC90: read-out: IC90 EFA 14506
Protocol: as §1, §2, §3

[7] = test system: Staphylococcus aureus (ATCC29213); assay: Microtitre plate assay, IC90 for bacterial growth; format: cell-based; conditions: 90% inhibitory concentration for bacterial growth, 24 hours at 37° C., resazurin; for IC90: Staphylococcus aureus, ATCC29213, 24 h, read-out: IC90 STA 29213
Protocol: as §1, §2, §3

[8] = test system: Staphylococcus aureus (ATCC25923); assay: Microtitre plate assay, IC90 for bacterial growth; format: cell-based; conditions: for IC90: Staphylococcus aureus, ATCC25923, 90% inhibitory concentration for bacterial growth, read-out: IC90 STA 25923
Protocol: as §1, §2, §3

[9] = test system: Pseudomonas aeruginosa (ATCC27853); assay: Microtitre plate assay, IC90 for bacterial growth; format: cell-based; conditions: for IC90: Pseudomonas aeruginosa, ATCC27853, 90% inhibitory concentration for bacterial growth, read-out: IC90 PAE 27853
Protocol: as §1, §2, §3

[10] = test system: Streptococcus pneumoniae (ATCC6305); assay: Microtitre plate assay, IC90 for bacterial growth; format: cell-based; conditions: for IC90: Streptococcus pneumoniae, ATCC6305, 90% inhibitory concentration for bacterial growth, read-out: IC90 SPN 6305; for IC90 SPN 6305: 90% inhibitory concentration for bacterial growth
Protocol: as §1, §2, §3

[11] = test system: Escherichia coli (ATCC1403); assay: Microtitre plate assay, IC90 for bacterial growth; format: cell-based
Protocol: as §1, §2, §3

[12] = test system: Escherichia coli (ATCC25922); assay: Microtitre plate assay, IC90 for bacterial growth; format: cell-based; conditions: 90% inhibitory concentration for bacterial growth, read-out: IC90 ECO 25922
Protocol: as §1, §2, §3

[13] = test system: Streptococcus mutans (ATCC33402); assay: Microtitre plate assay, IC90 for bacterial growth; format: cell-based
Protocol: as §1, §2, §3

[14] = test system: Escherichia coli (ATCC35218); assay: Microtitre plate assay, IC90 for bacterial growth; format: cell-based; conditions: 90% inhibitory concentration for bacterial growth
Protocol: as §1, §2, §3

[15] = test system: Staphylococcus aureus (ATCC43300); assay: Microtitre plate assay, IC90 for bacterial growth; format: cell-based; conditions: 90% inhibitory concentration for bacterial growth
Protocol: as §1, §2, §3

[16] = 90% inhibitory concentration for bacterial growth

melting point | IC90 [1] | IC90 [2] | IC90 [3] | IC90 [5] | IC90 [6] | IC90 [7] | IC90 [8] | IC90 [9] | IC90 [10] | IC90 BSU 43639 [1] | IC90 STA 43300 [15] | IC90 SPN 6305 [10] | Compound | IC90 [4] | also measured
168 °C | 12.7 µg/mL (≈ 25.1 µM) | 12.7 µg/mL (≈ 25.1 µM) | 12.7 µg/mL (≈ 25.1 µM) | 12.7 µg/mL (≈ 25.1 µM) | 40 µg/mL (≈ 79.1 µM) | 12.7 µg/mL (≈ 25.1 µM) | 12.7 µg/mL (≈ 25.1 µM) | 10 µg/mL (≈ 19.8 µM) | 12.7 µg/mL (≈ 25.1 µM) |  |  |  | COc1nc2ccc(Br)cc2cc1C(c1ccccc1)C1(C2=CC=CCC2)CCN(C)CO1 (single isomer, unassigned) [Compound 8] | 12.7 µg/mL (≈ 25.1 µM) | 
189 °C | 12.8 µg/mL (≈ 25.1 µM) | 12.8 µg/mL (≈ 25.1 µM) | 12.8 µg/mL (≈ 25.1 µM) | 12.8 µg/mL (≈ 25.1 µM) | 12.8 µg/mL (≈ 25.1 µM) | 12.8 µg/mL (≈ 25.1 µM) | 12.8 µg/mL (≈ 25.1 µM) | 12.8 µg/mL (≈ 25.1 µM) | 12.8 µg/mL (≈ 25.1 µM) |  |  |  | COc1nc2ccc(Cl)cc2cc1C(c1ccccc1)C1(c2cccc3ccccc23)CCN(C)CO1 (single isomer, unassigned) [Compound 14] | 12.8 µg/mL (≈ 25.1 µM) | 
211 °C |  |  |  |  |  |  |  |  |  | 2.1 µg/mL | 9.3 µg/mL | 2.3 µg/mL | COc1nc2ccc(Cl)cc2cc1C(c1ccccc1)C1(c2cccc3ccccc23)CC[N+](C)(C)CO1.[I-] (single isomer, unassigned) [Compound 15] |  | IC90 EFA 29212 [2, 16]: 2.1 µg/mL; IC90 ECO 1403 [11, 16]: 10.5 µg/mL; IC90 SPY 8668 [3, 16]: 1.9 µg/mL; IC90 STA RMETHIC [4]: 1.9 µg/mL; IC90 [12]: 10.5 µg/mL; IC90 SMU 33402 [13, 16]: 1.9 µg/mL; IC90 LMO 49594 [5, 16]: 2.1 µg/mL; IC90 ECO 35218 [14]: 41.6 µg/mL; IC90 EFA 14506 [6]: 2.1 µg/mL; IC90 STA 29213 [7]: 1.86 µg/mL; IC90 STA 25923 [8, 16]: 2.1 µg/mL; IC90 PAE 27853 [9, 16]: 9.3 µg/mL
195 °C |  | 2.6 µg/mL | 1.9 µg/mL | 1.7 µg/mL | 2.1 µg/mL | 1.9 µg/mL | 1.9 µg/mL | 10.5 µg/mL |  | 10.5 µg/mL | 41.6 µg/mL | 5.2 µg/mL | COc1nc2ccc(Cl)cc2cc1C(c1ccccc1)C1(c2cccc3ccccc23)CC[N+](C)(C)CO1.[I-] (single isomer, unassigned) [Compound 16] | 2.1 µg/mL | IC90 ([11]; Escherichia coli, ATCC1403, 90% inhibitory concentration for bacterial growth, read-out: IC90 ECO 1403): 13.2 µg/mL; IC90 ([13]; Streptococcus mutans, ATCC33402, 90% inhibitory concentration for bacterial growth, read-out: IC90 SMU 33402): 2.1 µg/mL; IC90 ([14]; read-out: IC90 ECO 35218): 41.6 µg/mL
